Laboratory results from PubChem BioAssay AID330 (DTP/NCI, 2004).
Where “and” joins values, the source holds several entries; their conditions need not be identical. Identical values can stand only once. Toxic doses and inconclusive results are not listed. Rule for the calls: active = survival T/C of 150% or more; inactive = T/C below 125% in these data.

Test system: P388 leukemia ip, CD2F1 mice, survival T/C
Experiment: NCI In Vivo Anticancer Drug Screen. Data for tumor model P388 Leukemia (intraperitoneal) in CD2F1 (CDF1) mice
Details: endpoint: median survival time, higher = longer survival
Summary of the method: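 Mice carrying the transplanted tumor received test compound or vehicle. Survival was recorded in each group, and the value is the treated-group measurement divided by that of the vehicle-treated control group.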

[1] = dose: 50.0 mg/kg/injection, schedule: Q01DX009 (ip), vehicle: saline
[2] = dose: 60.0 mg/kg/injection, schedule: Q01DX005 (ip), vehicle: saline with Tween-80
[3] = dose: 120.0 mg/kg/injection, schedule: Q01DX005 (ip), vehicle: saline with Tween-80
[4] = dose: 240.0 mg/kg/injection, schedule: Q01DX005 (ip), vehicle: saline with Tween-80
[5] = dose: 12.5 mg/kg/injection, schedule: Q01DX009 (ip), vehicle: saline with Tween-80
[6] = dose: 25.0 mg/kg/injection, schedule: Q01DX009 (ip), vehicle: saline with Tween-80
[7] = dose: 50.0 mg/kg/injection, schedule: Q01DX009 (ip), vehicle: Klucel (hydroxypropylcellulose) (HPC)
[8] = dose: 50.0 mg/kg/injection, schedule: Q01DX009 (ip), vehicle: saline with Tween-80
[9] = dose: 100.0 mg/kg/injection, schedule: Q01DX009 (ip), vehicle: Klucel (hydroxypropylcellulose) (HPC)
[10] = dose: 100.0 mg/kg/injection, schedule: Q01DX009 (ip), vehicle: saline with Tween-80
[11] = dose: 50.0 mg/kg/injection, schedule: Q01DX005 (ip), vehicle: Klucel (hydroxypropylcellulose) (HPC)
[12] = dose: 100.0 mg/kg/injection, schedule: Q01DX005 (ip), vehicle: Klucel (hydroxypropylcellulose) (HPC)
[13] = dose: 200.0 mg/kg/injection, schedule: Q01DX005 (ip), vehicle: Klucel (hydroxypropylcellulose) (HPC)
[14] = dose: 200.0 mg/kg/injection, schedule: Q01DX009 (ip), vehicle: Klucel (hydroxypropylcellulose) (HPC)

Measured: T/C

NC(N)=NC(N)=Nc1ccc([As](=O)(O)O)c(O)c1
inactive: dose: 22.5 mg/kg/injection, schedule: Q01DX009 (ip), vehicle: saline 105 % of control | dose: 25.0 mg/kg/injection, schedule: Q01DX009 (ip), vehicle: saline sonified 118 % of control | dose: 33.0 mg/kg/injection, schedule: Q01DX009 (ip), vehicle: saline 104 % of control | dose: 45.0 mg/kg/injection, schedule: Q01DX009 (ip), vehicle: saline 104 % of control | dose: 50.0 mg/kg/injection, schedule: Q01DX009 (ip), vehicle: saline sonified 118 % of control | [1] 109 % of control | dose: 75.0 mg/kg/injection, schedule: Q01DX009 (ip), vehicle: saline 122 % of control | dose: 90.0 mg/kg/injection, schedule: Q01DX009 (ip), vehicle: saline 115 % of control | dose: 180.0 mg/kg/injection, schedule: Q01DX009 (ip), vehicle: saline 117 % of control | dose: 360.0 mg/kg/injection, schedule: Q01DX009 (ip), vehicle: saline 103 % of control

CC(=O)OCCOCNC(=S)NN1CCOCC1
inactive: [2] 100 % of control | [3] 95 % of control | [4] 100 % of control

CC1(C)C=C2OC(=O)CCC2(C)CC1 (configuration not stated)
inactive: dose: 50.0 mg/kg/injection, schedule: Q01DX001 (ip), vehicle: saline with Tween-80 95 % of control | dose: 100.0 mg/kg/injection, schedule: Q01DX001 (ip), vehicle: saline with Tween-80 118 % of control | dose: 200.0 mg/kg/injection, schedule: Q01DX001 (ip), vehicle: saline with Tween-80 90 % of control

C/C(=C\c1ccc([N+](=O)[O-])cc1)C(=O)NC(C)C
inactive: dose: 50.0 mg/kg/injection, schedule: Q01DX005 (ip), vehicle: other 102 % of control | dose: 100.0 mg/kg/injection, schedule: Q01DX005 (ip), vehicle: other 93 % of control | dose: 200.0 mg/kg/injection, schedule: Q01DX005 (ip), vehicle: other 105 % of control

CN(C)C(C#CCO)c1ccccc1 (configuration not stated)
inactive: dose: 60.0 mg/kg/injection, schedule: Q01DX005 (ip), vehicle: saline 100 % of control | dose: 120.0 mg/kg/injection, schedule: Q01DX005 (ip), vehicle: saline 103 % of control | dose: 240.0 mg/kg/injection, schedule: Q01DX005 (ip), vehicle: saline 101 % of control

C1CCNCC1.O=C([CH-]C(=O)C(F)(F)F)c1cccs1.O=C([CH-]C(=O)C(F)(F)F)c1cccs1.O=C([CH-]C(=O)C(F)(F)F)c1cccs1.O=C([CH-]C(=O)C(F)(F)F)c1cccs1.[Eu+3]
inactive: [5] 95 % of control | dose: 25.0 mg/kg/injection, schedule: Q01DX009 (ip), vehicle: Klucel (hydroxypropylcellulose) (HPC) 105 % of control | [6] 95 % of control | [7] 109 % of control | [8] 99 % of control | [9] 109 % of control | [10] 89 % of control

O=C(CC(O)(C(F)(F)F)C(F)(F)F)c1ccco1
inactive: dose: 33.0 mg/kg/injection, schedule: Q01DX009 (ip), vehicle: saline with Tween-80 110 % of control

CC(=O)Nc1ccc(S(=O)(=O)N/N=C/C(=O)O)cc1
inactive: dose: 3.13 mg/kg/injection, schedule: Q01DX009 (ip), vehicle: other 101 % of control | dose: 6.25 mg/kg/injection, schedule: Q01DX009 (ip), vehicle: other 111 % of control | dose: 12.5 mg/kg/injection, schedule: Q01DX009 (ip), vehicle: other 118 % of control

COC(=O)CCSC(=O)NS(=O)(=O)c1ccc(C)cc1
inactive: [11] 104 % of control | [12] 102 % of control | [13] 104 % of control

BrC(Br)(c1ccccc1)C1OCCO1
inactive: [8] 109 % of control | [10] 109 % of control | dose: 200.0 mg/kg/injection, schedule: Q01DX009 (ip), vehicle: saline with Tween-80 113 % of control

N#C/C(=C/c1ccc(Cl)cc1)c1ccc(Cl)cc1
inactive: [7] 102 % of control | [9] 110 % of control | [14] 102 % of control

CN(C)CCSc1nnc(N)s1
inactive: dose: 25.0 mg/kg/injection, schedule: Q01DX001 (ip), vehicle: saline 108 % of control | dose: 50.0 mg/kg/injection, schedule: Q01DX001 (ip), vehicle: saline 109 % of control | dose: 100.0 mg/kg/injection, schedule: Q01DX001 (ip), vehicle: saline 105 % of control and 109 % of control | dose: 200.0 mg/kg/injection, schedule: Q01DX001 (ip), vehicle: saline 94 % of control

CCCCC1(CCCCCCCCC(=O)OCC)OCCO1
inactive: [11] 96 % of control | [12] 97 % of control | [13] 97 % of control

CC(=O)c1cccc(NC(=O)C2C(=O)C(=O)N(c3cccc(C(C)=O)c3)C2=O)c1 (configuration not stated)
inactive: [7] 91 % of control | [9] 104 % of control | [14] 101 % of control

NC12CCC(c3ccccc31)c1ccccc12
inactive: dose: 60.0 mg/kg/injection, schedule: Q01DX005 (ip), vehicle: Klucel (hydroxypropylcellulose) (HPC) 95 % of control | dose: 120.0 mg/kg/injection, schedule: Q01DX005 (ip), vehicle: Klucel (hydroxypropylcellulose) (HPC) 102 % of control | dose: 240.0 mg/kg/injection, schedule: Q01DX005 (ip), vehicle: Klucel (hydroxypropylcellulose) (HPC) 93 % of control

CC1=CC2C3C(=O)NC(=O)C3C1C1C3C(=O)NC(=O)C3C21 (configuration not stated)
inactive: [2] 98 % of control | [3] 104 % of control | [4] 95 % of control

Cc1oc(C)c2c1C(=O)N(C)C2=O
inactive: [2] 100 % of control | [3] 100 % of control | [4] 103 % of control

COc1ccc2c(c1)OC(C)(C)C(c1ccccc1)=C2c1ccc(OCCBr)cc1
inactive: [11] 101 % of control | [12] 98 % of control | [13] 100 % of control

CC(=O)Oc1ccc2c(c1)c1c(OC(C)=O)c(N(C)C(C)=O)cc(OC(C)=O)c1n2C
inactive: [1] 100 % of control | dose: 100.0 mg/kg/injection, schedule: Q01DX009 (ip), vehicle: saline 86 % of control | dose: 200.0 mg/kg/injection, schedule: Q01DX009 (ip), vehicle: saline 100 % of control

CC(NNC(=S)N1CCC(c2ccccc2)CC1)c1ccc2ccccc2n1 (configuration not stated)
inactive: [11] 97 % of control | [12] 105 % of control

COc1ccc(CC(C#N)c2ccc(Cl)cc2)cc1 (configuration not stated)
inactive: [7] 107 % of control | [9] 101 % of control | [14] 98 % of control | dose: 400.0 mg/kg/injection, schedule: Q01DX009 (ip), vehicle: Klucel (hydroxypropylcellulose) (HPC) 98 % of control

CC(=O)Nc1ccc(/C=N/NC(=O)CC2CCCCC2)cc1
inactive: [2] 96 % of control | [3] 100 % of control | [4] 91 % of control

NC1=NN(S(=O)(=O)c2ccc(Cl)cc2)CC1
inactive: [11] 96 % of control | [12] 88 % of control | [13] 90 % of control

O=C([S-])N1CCCCC1.O=C([S-])N1CCCCC1.[Ni+2]
inactive: [5] 90 % of control | [6] 100 % of control | [8] 90 % of control

O=C(Oc1ccccc1)c1ccc(C(=O)Oc2ccccc2)cc1
inactive: [7] 108 % of control | [9] 102 % of control | [14] 101 % of control

CCOC(=O)/C(=C(/[S-])SC)[n+]1ccc(C)cc1
inactive: dose: 100.0 mg/kg/injection, schedule: Q04DX002 (ip), vehicle: saline with Tween-80 101 % of control | dose: 200.0 mg/kg/injection, schedule: Q04DX002 (ip), vehicle: saline with Tween-80 99 % of control
